Experimental data from patent US12129255B2, “Pyrido [2,3-d]pyrimidine derivatives as inhibitors of human immunodeficiency virus replication” (VIIV HEALTHCARE UK (No. 5) LIMITED, priority 2019, dated 2024).

Legend:
[1] = Metabolism in human hepatocytes; format: in vitro ADME
Description: Cryopreserved hepatocytes in suspension from human, monkey, dog, rat and mouse were thawed and diluted in pre-warmed William's Medium E (pH 7.4). Aliquots of the hepatocyte suspension were added to test compound working solutions prepared in pre-warmed William's Medium E (pH 7.4) to achieve final concentrations of 0.5 μM in 0.5×10^6 cells per milliliter and ≤0.25% DMSO. These samples were incubated at 37° C. with 5% carbon dioxide and shaking at 200 rpm. The incubations were performed in singlet. […] Following completion of the experiment, samples were analyzed by LC-MS/MS. […] This percentage is calculated by dividing the peak area ratio of test compound following incubation (tx) by the peak area ratio of test compound at time-zero (t0) just prior to incubation. • The elimination rate constant (k, min^−1) is calculated using nonlinear regression fitting with the following equation: Ct=C0×e^(−k×t) • where: • C0 is the initial concentration represented as the peak area ratio (test compound peak area/internal standard peak area); • Ct is the concentration at t represented as the area ratio (test compound peak area/internal standard peak area); • e is the base of the natural logarithm • t is the time (min); • k is the elimination rate constant (min^−1). • The half-life (t1/2, min) is calculated using the following equation: […]

[2] = IV pharmacokinetics in dog; format: in vivo, Beagle Dogs
Description: PK was investigated in male CD1 mice, Wistar Han Rats, Cynomolgus monkeys, and Beagle Dogs. Two groups of animals (N=3 per group) received test compound either as an intravenous (IV) dose (1 mg/kg) or by oral gavage (5 mg/kg solution and suspension). Drug was formulated in 90% PEG 400, 10% ethanol for IV administration and in 90% PEG400, 5% ethanol for PO administration. Blood samples were collected at 0.167, 0.25, 0.5, 0.75, 1, 2, 3, 5, 7, 24, 48, 72 and 96 h post dose for IV; 0.25, 0.5, 0.75, 1, 2, 3, 5, 7, 24, 48, 72 and 96 h post dose for oral. Blood samples were collected into K3EDTA tubes and centrifuged at 1500 to 2000×g to obtain plasma. Plasma samples were stored at −20° C. until analysis by LC-MS/MS. All in vivo samples were injected on an Exion LC 4500 Triple Quad™ LC-MS/MS system where the column was maintained at 60° C. and the flow rate was 0.6 mL/min. All LC-MS/MS analysis parameters are captured electronically in the raw data files. Rat IV, Dog IV, Monkey IV, and Monkey PO PK samples were analyzed by General Analysis Method A. Mouse IV, Mouse PO, and Dog PO PK samples were analyzed by General Analysis Method B. Rat PO samples were analyzed by General Analysis Method C.
The PK parameters were obtained by non-compartmental analysis of plasma concentration vs time data (Phoenix WinNonlin v8.1). The peak concentration (Cmax) and time for Cmax (Tmax) were recorded directly from experimental observations. The area under the curve from time zero to the last sampling time [AUC0-T] and the area under the curve from time zero to infinity [AUCINF] were calculated using the linear-log trapezoidal rule. The total plasma clearance (CLTp), steady-state volume of distribution (VSS), apparent elimination half-life (T-HALF), and mean residence time (MRT) were estimated after IV administration. Estimations of AUC and T-HALF were made using a minimum of three timepoints with quantifiable concentrations. The absolute oral bioavailability (F) was estimated as the ratio of dose-normalized AUC values following oral and IV doses.

[3] = Beagle, plasma, Dog, IV 1 mg/kg

Cn1nc(NS(C)(=O)=O)c2c(Cl)ccc(-n3c([C@H](Cc4cc(F)cc(F)c4)NC(=O)Cn4nc(C(F)F)c5c4C(F)(F)[C@@H]4C[C@H]54)nc4nc(OCCC(F)(F)F)ccc4c3=O)c21 (atropisomer, axis not shown; (P)) [Example 1, N—((S)-1-((3P)-3-(4-chloro-1-methyl-3-(methylsulfonamido)-1H-indazol-7-yl)-4-oxo-7-(3,3,3-trifluoropropoxy)-3,4-dihydropyrido[2,3-d]pyrimidin-2-yl)-2-(3,5-difluorophenyl)ethyl)-2-((3bS,4aR)-3-(difluoromethyl)-5,5-difluoro-3b,4,4a,5-tetrahydro-1H-cyclopropa[3,4]cyclopenta[1,2-c]pyrazol-1-yl)acetamide]
intrinsic clearance in human hepatocytes ([1]; 0.5 μM, 0.5×10^6 cells per milliliter): 0.312 mL/min/g liver | half-life at 0.5 μM ([1]; human, cryopreserved hepatocytes in suspension, pH 7.4, 0.5×10^6 cells per milliliter): > 8 h | clearance [2, 3]: 1.68 mL/min/kg | half-life [2, 3]: 8.6 h | Vd ([2]; Beagle, plasma, Dog, IV 1 mg/kg, read-out: Vss): 0.83 L/kg | clearance improved relative to Example 60.2 ([2]; dog, IV): 4.9 fold | half-life in circulation higher than Example 60.2 ([2]; dog, IV): 3.4 fold
